Experimental data taken from US20220062228A1, “USE OF CARNOSOL FOR INCREASING MUSCLE PROTEIN SYNTHESIS” (Centre National De La Recherche Scientifique, priority 2018, published 2022).
Counter-ions that a name gives are not always drawn.

How the values were obtained:
human myotubes = assay: culture cell model of human skeletal muscle satellite cells: area of myotubes (troponin T immunofluorescence, Image J); format: cell-based; conditions: for hypertrophic activity on myotubes, comparison with antioxidant compounds: FIG. 8; for hypertrophic activity on myotubes, carnosol compared with carnosic acid: 1 μg/ml and 5 μg/ml, FIG. 9; for hypertrophic activity on myotubes (area of myotubes) / concentration from which hypertrophic activity is exhibited: myotubes from young human subjects; for hypertrophic activity on myotubes (area of myotubes): 5 μg/ml, FIG. 3; for concentration from which hypertrophic activity is exhibited: FIG. 4
Excerpt: (§1) In order to assay the hypertrophic effect on muscle of compounds from vegetal extracts, the inventors have designed a culture cell model of human skeletal muscle satellite cells. The skeletal muscle satellite cells are able to proliferate and to differentiate ex vivo. When cultured in a growth factors rich medium, the skeletal muscle satellite cells proliferate in the form of myoblasts. At confluence, the myoblasts morphologically differentiate by fusing thereby producing long multinucleated cells (myotubes or myofibers) which express muscular protein. Myotubes are able to respond to hypertrophic and atrophic signals by modulating the balance between the protein synthesis (hypertrophy) or the protein degradation (atrophy) (El Haddad M. et al., Cell Mol Life Sci. 2017 May; 74(10):1923-1936).
The recovered skeletal muscle satellite cells used in the culture cell model by the inventors were recovered from a muscular biopsy of young and elderly subjects.
The satellite cells can be easily recovered from a muscle biopsy and cultured ex vivo in dishes where they proliferate as myoblasts and differentiate into myotubes. The biopsy is treated according to an experimental protocol described and validated by us for human skeletal muscle from quadriceps (Kitzmann et al., 2006; El Haddad et al 2017). The biopsy is cut into a fragment of 1 mm^3 and placed in a culture dish treated with type 1 collagen. The explants are trapped inside in a thin layer of Matrigel (BD Matrigel Matrix, BD Biosciences) in 35 mm-collagen coated Petri dishes with growth media (DMEM/F12, supplemented with 10% fetal bovine serum, 0.1% Ultroser G, 1 ng/ml basic FGF, and 10 microg/mL gentamicin). After 6 to 8 days, when cells migrate out of the explants, they are enzymatically harvested using dispase (BD Biosciences) and subcultured in growth medium. Harvested cells are purified by immunomagnetic cell sorting using magnetic activated cell sorter (MACS) microbeads (MiltenyiBiotec) coupled to an antibody against CD56. Usually in protocols of muscle culture cells, muscle differentiation is induced by growing confluent myoblasts in differentiation medium depleted of growth factors. At confluence, myoblasts start to differentiate and differentiation can be evidenced 1) morphologically (after 2 to 4 days), as the fusion of myoblasts generates long giant multinucleated cells (named myotubes) and 2) biochemically, as myotubes express proteins required for muscle contraction. Differentiation is assessed by immunofluorescence using the antibodies against Troponin T and Myogenin, two markers of muscle differentiation. The differentiation status is also confirmed by precisely measuring the expression of three differentiation markers (Myogenin, Sarcomeric Actin and Caveolin by RT-qPCR). Expression of RPLP0 is also quantified as internal control.
Briefly, myoblasts are seeded at 10^5 cells/dish onto 35 mm collagen-coated dishes and cultured in growth medium (DMEM/F12, supplemented with 10% fetal bovine serum, 0.1% Ultroser G, 1 ng/ml basic FGF, and 10 microg/ml gentamicin). Myogenic differentiation of confluent cells was induced after 3 days by changing to DMEM containing 5% FBS (differentiation medium). Cells were kept in differentiation medium for 3 to 4 days.
Then the cells are fixed and the expression of troponin T (a protein of the cytoskeleton which is exclusively expressed by myotubes) is analysed by immuno-fluorescence. Then the area of myotubes is measured using the Image J software. If the area increases the compound has a hypertrophic activity and if the area decreases the compound has an atrophic activity.
The skeletal muscle satellite cells came from young people (aged under 30).

gastrocnemius muscle = assay: fibre areas (CSA) of gastrocnemius muscle sections, anti-dystrophin staining, Myovision; format: in vivo; conditions: adult C57 BL6 J mice, daily oral dose of 80 mg/Kg for 12 days; FIG. 6
Experimental: (§2) Hypertrophic Activity of Carnosol In Vivo To investigate whether carnosol can alter skeletal muscle physiology, adult mice (13 weeks old, C57 BL6 J) were treated for 12 days with a daily oral dose of 80 mg/Kg. […] The determination of the fibre areas (CSA) was made using the Myovision software.

MURF1 protein = assay: western blot analysis on muscle extract for MURF1 protein; format: in vivo; conditions: adult C57 BL6 J mice, daily oral dose of 80 mg/Kg for 12 days; FIG. 7
Experimental: as §2
Then, a western blot analysis on muscle extract was performed to determine the impact of a carnosol treatment on MURF1 protein.

MuRF1 = assay: western blot of MuRF1 in myotubes / skeletal muscle cells; format: cell-based, human
Excerpt: The muscle protein degradation may be measured by assaying the level of expression of an ubiquitin ligases such as muscle RING-finger protein-1 (MuRF1).

mTOR pathway = assay: western blot of signaling pathways controlling muscle hypertrophy in myotubes; format: cell-based, human; conditions: FIG. 14
Excerpt: Two main pathways control the regeneration of contractile proteins: • PI3K/Akt/mTOR which is the major pathway of muscle hypertrophy and • pathway of the transcription factors of FOXO family which controls the expression of the genes involved in the proteasome degradation systems and the autophagy (respectively atrogenes and genes of the autophagy).
At the molecular level, it has been established that the activation of the PI3K/Akt/mTOR pathway stimulates the protein synthesis through their anabolizing targets (mTOR, protein S6 kinase 1 (S6K) and the eIF4E-binding proteins (4E-BP) and blocks the ubiquitine E3 of the family of atrogenes MuRF1 and MAFbx mediated proteolysis pathway (FOXO) (Egerman and Glass, Signaling pathways controlling skeletal muscle mass. Crit Rev Biochem Mol Biol. 2014 January-February; 49(1):59-68).

[1] = test system: myotube cells from elderly subject; assay: culture cell model with skeletal muscle satellite cells recovered from elderly subjects: area of myotubes; format: cell-based, human; conditions: elderly subjects 1 and 2; carnosol 2 μg/ml; FIG. 5
Excerpt: as §1, with “74(10):1923-1936). […]” for “74(10):1923-1936).”
The satellite cells can be easily recovered from a muscle biopsy and cultured ex vivo in dishes where they proliferate as myoblasts and differentiate into myotubes. […] Differentiation is assessed by immunofluorescence using the antibodies against Troponin T and Myogenin, two markers of muscle differentiation. […] Expression of RPLP0 is also quantified as internal control. […]
Then the cells are fixed and the expression of troponin T (a protein of the cytoskeleton which is exclusively expressed by myotubes) is analysed by immuno-fluorescence. Then the area of myotubes is measured using the Image J software. […]

NRF2 pathway = assay: induction of the NRF2 pathway (NRF2, HO-1) in skeletal muscle cells; format: cell-based; conditions: for NRF2 accumulation / full activation of NRF2 pathway by inducing HO-1: skeletal muscle, 6 μM
Excerpt: The regulation of Nrf2 signaling is believed to preserve redox homeostasis and protect the structure and function of skeletal muscle. Nrf2 is a transcription factor, inactivated by Keap-1 in the cytoplasm. Upon activation, Keap1 is degraded, and NRF2 mediates intracellular antioxidant response by binding to the antioxidant response element (ARE) in the promoter of its target genes and induces the expression of a set of antioxidant enzymes, called ‘phase 2 enzymes,’ including heme oxygenase-1 (HO-1). Recently it has been shown that Nrf2 deficiency caused accelerated aging and muscle loss during aging.
Since carnosic acid and carnosol are antioxidants molecules and can activate the NRF2 pathway in several type of cells, it was studied whether carnosic acid and carnosol are capable of inducing NRF2 pathway in skeletal muscle.
In order to know whether NRF2 pathway activation is sufficient to activate hypertrophy in skeletal muscle cells. An assay with DMF (dimethyl Fumarate) has been carried out. Given DMF is a NRF2 activator, if the NRF2 pathway activation is sufficient to activate hypertrophy in skeletal muscle cells then DMF should induce myotube hypertrophy.

[2] = test system: protein synthesis in myotubes; assay: SUnSET puromycin incorporation western blot (protein synthesis) in the culture cell model; format: cell-based, human; conditions: myotubes stimulated with carnosol, puromycin 30 minutes before recovery; FIG. 13
Experimental: The synthesis of muscle protein may be measured in vitro by the method disclosed in Schmidt et al., SUnSET, a nonradioactive method to monitor protein synthesis, Nat Methods. 2009 April; 6(4):275-7. Muscle cells were treated with puromycin, 30 minutes before recovering the protein from the cells. Then, a western blot is carried out with anti-puromycin antibodies in order to show the translation rate of the mRNA in the living cells.
The muscular hypertrophic activity of carnosol may result from a global increase of the synthesis of proteins. To study this hypothesis, the culture cell model disclosed above was stimulated with carnosol. Then, 30 minutes before recovering the protein from the cells, the cells were treated with puromycin. The puromycin is incorporated in the neo-synthetized proteins. Then, a western blot was carried out with anti-puromycin antibodies in order to show the translation rate of the mRNA in the living cells (Schmidt et al., SUnSET, a nonradioactive method to monitor protein synthesis. Nat Methods. 2009; 6:275-277) (see FIG. 13).

## O=C1O[C@H]([C@@H](O)CO)C(O)=C1O [vitamin C, ascorbic acid, reference compound]
Human myotubes; 50 μg/ml
  hypertrophic activity on myotubes, comparison with antioxidant compounds: only carnosol has a significant hypertrophic activity

## C[C@H]1[C@H](C)CC[C@]2(C(=O)O)CC[C@]3(C)C(=CC[C@@H]4[C@@]5(C)CC[C@H](O)C(C)(C)[C@@H]5CC[C@]43C)[C@H]12 [ursolic acid, reference compound]
Human myotubes; 2 μg/ml
  hypertrophic activity on myotubes, comparison with antioxidant compounds: only carnosol has a significant hypertrophic activity

## O=C(/C=C/c1ccc(O)c(O)c1)O[C@H](Cc1ccc(O)c(O)c1)C(=O)O [rosmarinic acid, reference compound]
Human myotubes; 2 μg/ml
  hypertrophic activity on myotubes, comparison with antioxidant compounds: only carnosol has a significant hypertrophic activity

## CC(C)c1cc2c(c(O)c1O)[C@@]13CCCC(C)(C)[C@@H]1C[C@@H]2OC3=O [carnosol, Carnosol]
Gastrocnemius muscle
  diameter of the fibers (fibre area, CSA) of the gastrocnemius: significantly increases the diameter of the fibers
Human myotubes
  hypertrophic activity on myotubes, carnosol compared with carnosic acid: the hypertrophic activity of carnosol is significantly higher than the one of carnosic acid
Human myotubes; 2 μg/ml
  hypertrophic activity on myotubes, comparison with antioxidant compounds: only carnosol has a significant hypertrophic activity
Human myotubes; human myotubes treated 48 hours, 1 μg/ml, FIGS. 10-12
  myotube hypertrophy: only carnosol treatment induced myotube hypertrophy
Human myotubes; listed as commercially available carnosol
  hypertrophic activity on myotubes (area of myotubes): same hypertrophic activity as the fraction C
Human myotubes; listed as fraction C
  hypertrophic activity on myotubes (area of myotubes): active compound was isolated in the fraction C
Human myotubes; conversion of 0.5 μg/ml
  concentration from which hypertrophic activity is exhibited: 1 to 2 µM
Human myotubes; tested 0.25-5 μg/ml
  concentration from which hypertrophic activity is exhibited: ≥ 0.5 µg/mL
MURF1 protein
  MURF1 protein level in gastrocnemius: down-regulates MURF1 protein level
MuRF1; myotubes, western blot, FIG. 14
  MuRF1 expression (degradation of proteins): inhibits strongly the MuRF1 expression
mTOR pathway
  phosphorylation rate of 4EBP1 (p-4EBP1/4EPB1): increasing the phosphorylation rate
  phosphorylation rate of P70 S6 kinase (p-S6K/S6K): increasing the phosphorylation rate
  phosphorylation rate of PS6 (p-S6/S6): increasing the phosphorylation rate
[1]
  hypertrophic activity on myotube cells of elderly subjects: has also a hypertrophic activity
NRF2 pathway; skeletal muscle cells
  dose from which the NRF2 pathway is induced: ≥ 3 µM
NRF2 pathway
  NRF2 accumulation: both induce NRF2 accumulation
  full activation of NRF2 pathway by inducing HO-1: only carnosol fully activates NRF2 pathway by inducing HO-1
[2]
  synthesis of protein in muscle cells (puromycin incorporation): stimulates the synthesis of protein in muscle cells

## COC(=O)/C=C/C(=O)OC [DMF, dimethyl Fumarate, reference compound]
Human myotubes; 50 μM, FIG. 15
  myotube hypertrophy: does not induce repression of MURF1 protein and myotube hypertrophy
MuRF1; skeletal muscle cells, DMF treatment versus carnosol treatment
  repression of MURF1 protein: does not induce repression of MURF1 protein
NRF2 pathway; skeletal muscle cells
  dose from which the NRF2 pathway is induced: > 20 µM
  induction of the NRF2 pathway (NRF2 and HO-1): induces the NRF2 pathway

## vitamin D [reference compound]
Human myotubes; human myotubes treated 48 hours, 10^−7M, FIG. 12
  myotube hypertrophy: Only carnosol induced myotube hypertrophy

## CC(C)C[C@H](N)C(=O)O [leucine, reference compound]
Human myotubes; human myotubes treated 48 hours, 5 mM, FIG. 10
  myotube hypertrophy: only carnosol treatment induced myotube hypertrophy

## CC(C)(O)CC(=O)O [β-hydroxy-β-methylbutyrate, reference compound]
Human myotubes; human myotubes treated 48 hours, 25 μM and 100 μM, FIG. 11
  myotube hypertrophy: only carnosol treatment induced myotube hypertrophy

## CC(C)c1cc2c(c(O)c1O)[C@@]1(C(=O)O)CCCC(C)(C)[C@@H]1CC2 [carnosic acid, reference compound]
Human myotubes
  hypertrophic activity on myotubes, carnosol compared with carnosic acid: the hypertrophic activity of carnosol is significantly higher than the one of carnosic acid
Human myotubes; 2 μg/ml
  hypertrophic activity on myotubes, comparison with antioxidant compounds: only carnosol has a significant hypertrophic activity
NRF2 pathway
  NRF2 accumulation: both induce NRF2 accumulation
  full activation of NRF2 pathway by inducing HO-1: only carnosol fully activates NRF2 pathway by inducing HO-1
